Test results reported in patent publication US8003659B2, “Macrocyclic serine protease inhibitors” (Indenix Pharmaceuticals, Inc., priority 2008, dated 2011).

Columns and labels:
[1] = test system: HCV genotype 2a infectious virus; test: HCV genotype 2a infectious virus assay; assay type: cell-based, HCV (strain JFH-1; genotype 2a); settings: Hepatitis C virus
Protocol: (§1) Compounds were tested in a HCV genotype 2a infectious virus assay and the results are summarized in Table 7, wherein A represents a value smaller than 1 μM, and B represents a value between 1 μM to 10 μM, C represents a value between 10 μM to 75 μM and D represents a value greater than 75 μM.
The HCV in vitro infection core ELISA assay measures the ability of a test compound to inhibit replication of an infectious HCV (strain JFH-1; genotype 2a) in cell culture. […] We have developed this model for determining the efficacy of antiviral compounds against an infectious virus in vitro using HCV producing cells (HPC), a proprietary Huh-7-derived cell sublineage capable of propagating the JFH-1 HCV virus. The readout of the assay is quantification of HCV core protein by ELISA 5 days post infection with JFH-1 virus and treatment with a test compound.
Ninety-six-well Corning Costar plates were seeded with HPC cells at a density of 3.0×10^3 cells per well in 50 μL of Huh-7 media. Compound stock solutions were made up freshly in Huh-7 media (DMEM (containing glucose, L-glutamine and sodium pyruvate), 10% FBS, 100 IU/mL penicillin, 100 μg/mL streptomycin, 2 mM GlutaMAX, 1% MEM non-essential amino acids) as 2× stock. Seven additional 3-fold drug dilutions were prepared from the 2× stocks in Huh-7 media. At least 4 hours after HPC cells were seeded, the media in the 96-well culture plates was aspirated and 50 μL of each drug dilution and 50 μL of JFH-1 HCV was added to each well.
At 16 hrs post treatment and infection, the virus inoculum was removed by aspiration. The cultures were treated at the same final concentrations of drug diluted to 1× in Huh-7 media to a final volume of 200 μL. Cells were incubated in the presence of drug for 4 additional days at 37° C./5% CO2.
Media was removed from the plates by aspiration. Cells were fixed with 250 μL 1:1 acetone:methanol for 90 seconds, washed once in PBS and then three times with 1×KPL wash solution. The assay plates were then blocked with 150 μL/well 10% FBS-TNE (50 mM Tris-HCl (pH 7.5; Sigma), 100 mM NaCl, 1 mM EDTA with 10% FBS) for 1 hr at room temperature. Cells were washed three times with 1×KPL wash solution and incubated with 100 μL/well anti-hepatitis C core mAb (1 mg/mL stock diluted 1:500 in 10% FBS-TNE) for 2 hours at 37° C. Cells were washed three times with 1×KPL wash solution and incubated with 100 μL/well HRP-goat anti-mouse antibody (diluted 1:2,500 in 10% FBS-TNE) for 1 hr at 37° C.
OPD solution was prepared using 1 OPD tablet+12 mL citrate/phosphate buffer (16 mM citric acid, 27 mM Na2HPO4) plus 5 μL 30% H2O2 per plate. Cells were washed three times with 1×KPL wash solution and developed with 100 μL/well OPD solution for 30 minutes in the dark at room temperature. The reaction was stopped with 100 μL/well of 2NH2SO4, and absorbance measured at A490 nm in a Victor^3 V 1420 multilabel counter (Perkin Elmer). The EC50 values for each compound were calculated from dose response curves from the resulting best-fit equations determined by Microsoft Excel and XLfit 4.1 software. The negative control for inhibition of virus replication was untreated HPC cells infected with the JFH-1 HCV virus strain. The negative ELISA control was untreated, uninfected HPC cells. The positive ELISA control was untreated HPC cells infected the JFH-1 HCV virus strain.

[2] = test system: genotype 1b replicon; test: Antiviral activity in a genotype 1b replicon assay; assay type: cell-based, HCV; settings: Hepatitis C virus; genotype 1b replicon assay as described in Example 32; read-out: EC50
Protocol: General procedure: Huh-7 cells containing HCV Con1 subgenomic replicon (GS4.1 cells) were grown in Dulbecco's Modified Eagle Medium (DMEM) supplemented with 10% fetal bovine serum (FBS), 2 mM L-glutamine, 110 mg/L sodium pyruvate, 1× non-essential amino acids, 100 U/mL penicillin-streptomycin, and 0.5 mg/mL G418 (Invitrogen). For dose-response testing, the cells were seeded in 96-well plates at 7.5×10^3 cells/well in a volume of 50 μL, and incubated at 37° C./5% CO2. Three hours after plating, 50 μL of ten 2-fold serial dilutions of compounds (highest concentration, 75 μM) were added, and cell cultures were incubated at 37° C./5% CO2 in the presence of 0.5% DMSO. Alternatively, compounds were tested at a single concentration of 15 μM. In all cases, Huh-7 cells lacking the HCV replicon served as negative control. The cells were incubated in the presence of compounds for 72 hr after which they were monitored for expression of the NS4A protein by enzyme-linked immunosorbent assay (ELISA). For this, the plates were then fixed for 1 min with acetone/methanol (1:1, v/v), washed twice with phosphate-buffered saline (PBS), 0.1% Tween 20, blocked for 1 hr at room temperature with TNE buffer containing 10% FBS and then incubated for 2 hr at 37° C. with the anti-NS4A mouse monoclonal antibody A-236 (ViroGen) diluted in the same buffer. After washing three times with PBS, 0.1% Tween 20, the cells were incubated 1 hr at 37° C. with anti-mouse immunoglobulin G-peroxidase conjugate in TNE, 10% FBS. After washing as described above, the reaction was developed with O-phenylenediamine (Zymed). The reaction was stopped after 30 min with 2 NH2SO4, and absorbance was read at 492 nm using Sunrise Tecan spectrophotometer. EC50 values were determined from the % inhibition versus concentration data using a sigmoidal non-linear regression analysis based on four parameters with Tecan Magellan software. When screening at a single concentration, the results were expressed as % inhibition at 15 μM.
as §1, with “a” for “a HCV”, “1b replicon” for “2a infectious virus”, “assay as described in Example 32” for “assay”, “6,” for “7,”

[3] = Cytotoxicity (CC50) in the genotype 1b replicon assay; assay type: cell-based; settings: human, GS4.1 cells; genotype 1b replicon assay as described in Example 32
Protocol: For cytotoxicity evaluation, GS4.1 cells were treated with compounds as described above and cellular viability was monitored using the Cell Titer 96 AQueous One Solution Cell Proliferation Assay (Promega). CC50 values were determined from the % cytotoxicity versus concentration data with Tecan Magellan software as described above.
as §1, with “a” for “a HCV”, “1b replicon” for “2a infectious virus”, “assay as described in Example 32” for “assay”, “6,” for “7,”

For `COc1ccc2c(O[C@H]3C[C@H]4C(=O)N(C)CCCC/C=C\[C@@H]5C[C@@]5(C(=O)NS(=O)(=O)C5CC5)NC(=O)N4C3)cc(-c3nc(C(C)C)cs3)nc2c1Cl` [Compound 62d, (Z)-(4R,6S,15S,17S)-[17-[8-chloro-7-methoxy-2-(4-isopropylthiazol-2-yl)quinolin-4-yloxy]-13-N-methyl-2,14-dioxo-1,3,13-triazatricyclo[13.3.0.0]octadec-7-en-4-yl]carbonyl(cyclopropyl)sulfonamide], the EC50 [1] was < 1 µM, the EC50 [2] was < 1 µM and the CC50 [3] was 10 to 75 µM.
